Measurements from the kinase profiling compilation of Christmann-Franck et al. (2016).
Where “and” joins values, the source holds several entries; their conditions need not be identical. Equal entries are not always repeated.

Experiments:
Assay in all cases: KINOMEscan competition binding
Settings in all cases: compound 10.0 µM
BMPR1B (human) = BMPR1B (human) (UniProt O00238)
[1] = system: BMX (human), P51813 [V600E]
CAMK1D (human) = CAMK1D (human) (UniProt Q8IU85)
CAMK2A (human) = CAMK2A (human) (UniProt Q9UQM7)
Sequence of CAMK2A (human) (Q9UQM7 whole entry, looked up): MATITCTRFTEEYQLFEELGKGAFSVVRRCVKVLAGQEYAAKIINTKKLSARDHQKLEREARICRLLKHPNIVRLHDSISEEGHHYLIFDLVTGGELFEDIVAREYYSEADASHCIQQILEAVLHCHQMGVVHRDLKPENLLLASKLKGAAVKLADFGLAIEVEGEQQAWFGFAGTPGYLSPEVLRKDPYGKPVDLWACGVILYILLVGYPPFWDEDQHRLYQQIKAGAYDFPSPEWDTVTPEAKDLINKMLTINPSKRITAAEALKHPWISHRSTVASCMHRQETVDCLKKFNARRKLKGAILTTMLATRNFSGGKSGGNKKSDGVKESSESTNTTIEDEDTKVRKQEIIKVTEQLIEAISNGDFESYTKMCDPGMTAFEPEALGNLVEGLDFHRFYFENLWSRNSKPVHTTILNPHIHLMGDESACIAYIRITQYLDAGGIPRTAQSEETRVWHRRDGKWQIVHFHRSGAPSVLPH

CDK14 (human) = CDK14 (human) (UniProt O94921)
Sequence of CDK14 (human) (O94921 whole entry, looked up): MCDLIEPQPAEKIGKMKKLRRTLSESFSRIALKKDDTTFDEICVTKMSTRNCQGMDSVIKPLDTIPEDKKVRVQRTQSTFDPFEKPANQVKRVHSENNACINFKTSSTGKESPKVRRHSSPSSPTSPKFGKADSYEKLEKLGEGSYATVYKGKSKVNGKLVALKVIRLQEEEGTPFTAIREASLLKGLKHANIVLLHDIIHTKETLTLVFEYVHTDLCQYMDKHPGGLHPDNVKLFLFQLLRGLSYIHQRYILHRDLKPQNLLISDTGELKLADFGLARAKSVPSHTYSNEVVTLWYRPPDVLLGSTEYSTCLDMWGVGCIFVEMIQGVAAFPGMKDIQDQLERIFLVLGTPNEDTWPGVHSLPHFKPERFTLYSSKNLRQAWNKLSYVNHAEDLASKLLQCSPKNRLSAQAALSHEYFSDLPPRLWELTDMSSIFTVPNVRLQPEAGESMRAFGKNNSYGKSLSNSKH

CDK4 CCND3 (human) = CDK4 CCND3 (human) (UniProt P11802+P30281)
CHEK2 (human) = CHEK2 (human) (UniProt O96017)
CLK2 (human) = CLK2 (human) (UniProt P49760)
CSNK1G3 (human) = CSNK1G3 (human) (UniProt Q9Y6M4)
DAPK3 (human) = DAPK3 (human) (UniProt O43293)
Sequence of DAPK3 (human) (O43293 whole entry, looked up): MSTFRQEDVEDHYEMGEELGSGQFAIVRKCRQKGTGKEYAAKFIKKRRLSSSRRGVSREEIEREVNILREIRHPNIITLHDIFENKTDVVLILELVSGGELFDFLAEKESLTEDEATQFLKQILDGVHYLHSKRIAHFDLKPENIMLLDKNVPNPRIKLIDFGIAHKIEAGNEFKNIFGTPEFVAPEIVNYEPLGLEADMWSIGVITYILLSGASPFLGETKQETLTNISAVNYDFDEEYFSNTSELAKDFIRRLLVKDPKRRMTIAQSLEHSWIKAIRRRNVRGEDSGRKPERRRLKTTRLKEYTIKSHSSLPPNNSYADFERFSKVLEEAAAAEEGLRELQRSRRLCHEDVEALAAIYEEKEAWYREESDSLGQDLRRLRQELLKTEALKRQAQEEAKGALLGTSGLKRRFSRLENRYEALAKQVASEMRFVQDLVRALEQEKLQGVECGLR

DCLK2 (human) = DCLK2 (human) (UniProt Q8N568)
[2] = system: EGFR (human), P00533 [A750P; 747-749 del]
EIF2AK2 (human) = EIF2AK2 (human) (UniProt P19525)
EPHB2 (human) = EPHB2 (human) (UniProt P29323)
ERBB3 (human) = ERBB3 (human) (UniProt P21860)
FGFR3 (human) = FGFR3 (human) (UniProt P22607)
FLT3 (human) = FLT3 (human) (UniProt P36888)
HUNK (human) = HUNK (human) (UniProt P57058)
IGF1R (human) = IGF1R (human) (UniProt P08069)
LCK (human) = LCK (human) (UniProt P06239)
[3] = system: LRRK2 (human), Q5S007 [G2019S]
MAP2K5 (human) = MAP2K5 (human) (UniProt Q13163)
MAP3K9 (human) = MAP3K9 (human) (UniProt P80192)
Sequence of MAP3K9 (human) (P80192 whole entry, looked up): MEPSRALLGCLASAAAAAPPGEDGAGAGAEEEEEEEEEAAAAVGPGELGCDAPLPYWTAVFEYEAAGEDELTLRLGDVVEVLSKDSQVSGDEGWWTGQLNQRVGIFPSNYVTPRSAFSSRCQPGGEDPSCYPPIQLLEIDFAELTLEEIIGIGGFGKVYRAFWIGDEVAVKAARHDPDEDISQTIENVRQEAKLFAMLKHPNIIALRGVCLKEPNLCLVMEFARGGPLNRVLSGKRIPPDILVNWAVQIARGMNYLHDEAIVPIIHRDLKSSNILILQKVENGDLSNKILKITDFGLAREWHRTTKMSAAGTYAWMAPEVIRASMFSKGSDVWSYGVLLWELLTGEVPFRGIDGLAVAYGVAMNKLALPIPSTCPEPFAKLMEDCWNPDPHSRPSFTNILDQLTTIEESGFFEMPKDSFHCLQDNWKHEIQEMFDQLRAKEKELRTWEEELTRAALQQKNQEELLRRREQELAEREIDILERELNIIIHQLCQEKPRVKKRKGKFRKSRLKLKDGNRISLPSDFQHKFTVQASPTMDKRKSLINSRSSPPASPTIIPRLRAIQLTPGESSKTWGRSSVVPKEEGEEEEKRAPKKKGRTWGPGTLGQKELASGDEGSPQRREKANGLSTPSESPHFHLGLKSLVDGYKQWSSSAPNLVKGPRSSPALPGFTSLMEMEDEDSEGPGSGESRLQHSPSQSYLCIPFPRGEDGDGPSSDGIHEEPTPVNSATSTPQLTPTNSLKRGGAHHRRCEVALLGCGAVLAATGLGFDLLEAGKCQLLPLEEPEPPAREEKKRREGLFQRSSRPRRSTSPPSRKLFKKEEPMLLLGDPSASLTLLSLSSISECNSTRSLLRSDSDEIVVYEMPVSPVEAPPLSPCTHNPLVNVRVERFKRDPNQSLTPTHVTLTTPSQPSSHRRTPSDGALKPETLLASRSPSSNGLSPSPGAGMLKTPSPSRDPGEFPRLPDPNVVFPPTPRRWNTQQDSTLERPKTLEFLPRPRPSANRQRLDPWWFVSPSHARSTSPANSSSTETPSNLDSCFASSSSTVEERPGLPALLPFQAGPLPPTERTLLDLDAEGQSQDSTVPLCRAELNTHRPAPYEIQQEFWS

MAPK10 (human) = MAPK10 (human) (UniProt P53779)
MAPK11 (human) = MAPK11 (human) (UniProt Q15759)
MAPK15 (human) = MAPK15 (human) (UniProt Q8TD08)
MTOR (human) = MTOR (human) (UniProt P42345)
PHKG1 (human) = PHKG1 (human) (UniProt Q16816)
Sequence of PHKG1 (human) (Q16816 whole entry, looked up): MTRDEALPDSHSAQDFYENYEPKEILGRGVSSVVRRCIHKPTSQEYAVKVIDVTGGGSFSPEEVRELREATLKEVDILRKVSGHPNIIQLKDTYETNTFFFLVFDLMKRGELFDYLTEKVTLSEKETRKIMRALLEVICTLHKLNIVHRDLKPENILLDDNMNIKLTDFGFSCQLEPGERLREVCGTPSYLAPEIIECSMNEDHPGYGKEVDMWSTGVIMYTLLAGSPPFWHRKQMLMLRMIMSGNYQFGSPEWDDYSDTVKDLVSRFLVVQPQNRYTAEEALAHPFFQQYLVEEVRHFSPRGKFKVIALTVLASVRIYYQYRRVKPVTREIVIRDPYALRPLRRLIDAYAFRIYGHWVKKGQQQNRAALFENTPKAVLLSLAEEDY

PIP5K1A (human) = PIP5K1A (human) (UniProt Q99755)
PLK1 (human) = PLK1 (human) (UniProt P53350)
PRKAA2 (human) = PRKAA2 (human) (UniProt P54646)
Sequence of PRKAA2 (human) (P54646 whole entry, looked up): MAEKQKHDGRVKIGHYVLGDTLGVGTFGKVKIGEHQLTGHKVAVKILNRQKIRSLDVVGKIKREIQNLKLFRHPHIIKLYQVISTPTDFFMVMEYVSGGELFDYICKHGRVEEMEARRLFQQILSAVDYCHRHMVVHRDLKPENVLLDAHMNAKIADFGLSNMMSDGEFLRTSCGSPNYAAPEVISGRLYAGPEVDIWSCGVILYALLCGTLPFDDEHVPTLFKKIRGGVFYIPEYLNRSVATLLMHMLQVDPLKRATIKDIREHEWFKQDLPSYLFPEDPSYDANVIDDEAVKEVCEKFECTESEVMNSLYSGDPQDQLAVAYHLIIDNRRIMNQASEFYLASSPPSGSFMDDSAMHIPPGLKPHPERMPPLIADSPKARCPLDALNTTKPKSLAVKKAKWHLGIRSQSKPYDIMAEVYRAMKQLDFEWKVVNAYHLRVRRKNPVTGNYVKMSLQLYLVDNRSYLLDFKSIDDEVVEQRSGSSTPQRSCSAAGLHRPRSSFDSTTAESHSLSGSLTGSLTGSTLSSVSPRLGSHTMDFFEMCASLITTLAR

PRKCI (human) = PRKCI (human) (UniProt P41743)
PRKG1 (human) = PRKG1 (human) (UniProt Q13976)
RAF1 (human) = RAF1 (human) (UniProt P04049)
RIOK1 (human) = RIOK1 (human) (UniProt Q9BRS2)
RPS6KA2 KD1 (human) = RPS6KA2 KD1 (human) (UniProt Q15349)
STK11 (human) = STK11 (human) (UniProt Q15831)
Sequence of STK11 (human) (Q15831 whole entry, looked up): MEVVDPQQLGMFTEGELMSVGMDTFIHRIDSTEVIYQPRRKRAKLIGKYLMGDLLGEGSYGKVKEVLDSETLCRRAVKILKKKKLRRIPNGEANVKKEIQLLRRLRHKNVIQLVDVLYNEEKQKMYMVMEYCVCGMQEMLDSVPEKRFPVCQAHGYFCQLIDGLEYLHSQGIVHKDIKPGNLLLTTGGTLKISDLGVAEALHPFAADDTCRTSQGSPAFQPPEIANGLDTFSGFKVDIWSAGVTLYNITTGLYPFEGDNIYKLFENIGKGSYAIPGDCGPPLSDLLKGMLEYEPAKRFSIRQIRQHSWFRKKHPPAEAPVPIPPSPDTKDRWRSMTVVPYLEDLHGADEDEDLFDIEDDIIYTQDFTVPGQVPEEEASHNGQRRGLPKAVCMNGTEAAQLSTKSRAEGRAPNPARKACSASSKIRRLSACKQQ

[4] = molecular target: TYK2 JH1 catalytic (human) (UniProt P29597)
TYRO3 (human) = TYRO3 (human) (UniProt Q06418)
YSK4 (human) = YSK4 (human) (UniProt Q56UN5)

Sequence of CAMK1D (human) (Q8IU85 whole entry, looked up): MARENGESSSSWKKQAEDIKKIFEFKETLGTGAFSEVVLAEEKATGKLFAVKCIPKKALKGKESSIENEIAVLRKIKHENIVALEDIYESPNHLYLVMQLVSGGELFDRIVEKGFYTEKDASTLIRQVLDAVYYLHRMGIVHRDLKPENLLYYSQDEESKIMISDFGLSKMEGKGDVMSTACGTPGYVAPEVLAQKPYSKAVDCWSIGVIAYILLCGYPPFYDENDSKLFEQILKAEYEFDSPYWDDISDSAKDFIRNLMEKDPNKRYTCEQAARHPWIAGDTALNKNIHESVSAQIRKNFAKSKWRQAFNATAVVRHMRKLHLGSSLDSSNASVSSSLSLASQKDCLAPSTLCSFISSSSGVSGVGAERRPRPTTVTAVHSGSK
Sequence of BMX (human), P51813 [V600E] (P51813 whole entry, looked up, stated change not applied): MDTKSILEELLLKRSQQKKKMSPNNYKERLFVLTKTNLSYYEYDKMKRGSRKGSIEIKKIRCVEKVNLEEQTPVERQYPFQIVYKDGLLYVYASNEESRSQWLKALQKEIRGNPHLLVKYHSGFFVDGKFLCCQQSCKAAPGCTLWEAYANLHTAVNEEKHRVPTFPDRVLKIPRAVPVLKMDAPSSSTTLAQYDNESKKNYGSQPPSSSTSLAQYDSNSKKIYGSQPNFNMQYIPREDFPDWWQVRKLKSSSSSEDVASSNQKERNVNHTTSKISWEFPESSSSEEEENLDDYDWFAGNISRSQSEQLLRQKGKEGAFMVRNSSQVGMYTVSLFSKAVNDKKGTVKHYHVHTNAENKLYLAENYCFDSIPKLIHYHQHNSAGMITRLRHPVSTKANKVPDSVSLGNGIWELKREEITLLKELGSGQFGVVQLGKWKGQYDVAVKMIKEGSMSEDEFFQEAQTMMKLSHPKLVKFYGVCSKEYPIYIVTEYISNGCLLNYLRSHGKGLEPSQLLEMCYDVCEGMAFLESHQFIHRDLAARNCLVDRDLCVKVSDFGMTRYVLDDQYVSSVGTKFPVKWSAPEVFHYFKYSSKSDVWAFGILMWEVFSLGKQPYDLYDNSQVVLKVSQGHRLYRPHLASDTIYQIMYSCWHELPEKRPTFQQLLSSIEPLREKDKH

Structure (SMILES) | kinase still bound, per cent of control (BMPR1B (human)) [%] | kinase still bound, per cent of control [1] [%] | kinase still bound, per cent of control (CAMK1D (human)) [%] | kinase still bound, per cent of control (CAMK2A (human)) [%] | kinase still bound, per cent of control (CDK14 (human)) [%] | kinase still bound, per cent of control (CDK4 CCND3 (human)) [%] | kinase still bound, per cent of control (CHEK2 (human)) [%] | kinase still bound, per cent of control (CLK2 (human)) [%] | kinase still bound, per cent of control (CSNK1G3 (human)) [%] | kinase still bound, per cent of control (DAPK3 (human)) [%] | kinase still bound, per cent of control (DCLK2 (human)) [%] | kinase still bound, per cent of control [2] [%] | kinase still bound, per cent of control (EIF2AK2 (human)) [%] | kinase still bound, per cent of control (EPHB2 (human)) [%] | kinase still bound, per cent of control (ERBB3 (human)) [%] | kinase still bound, per cent of control (FGFR3 (human)) [%] | kinase still bound, per cent of control (FLT3 (human)) | kinase still bound, per cent of control (HUNK (human)) [%] | kinase still bound, per cent of control (IGF1R (human)) [%] | kinase still bound, per cent of control (LCK (human)) [%] | other results
C=CC(=O)Nc1ccc(C(=O)c2sc(Nc3ccc(N4CCN(C)CC4)cc3OC)nc2N)cc1 | 86 | 92 | 0.55 | 1.2 | 82 | 0.55 | 26 | 0 | 24 | 2.6 | 28 | 61 | 100 | 100 | 93 | 78 | 73% | 33 | 86 | 89 | kinase still bound, per cent of control [3]: 1.5%; kinase still bound, per cent of control (MAP2K5 (human)): 100%; kinase still bound, per cent of control (MAP3K9 (human)): 93%; kinase still bound, per cent of control (MAPK10 (human)): 6.4%; kinase still bound, per cent of control (MAPK11 (human)): 4.1%; kinase still bound, per cent of control (MAPK15 (human)): 75%; kinase still bound, per cent of control (MTOR (human)): 90%; kinase still bound, per cent of control (PHKG1 (human)): 7.4%; kinase still bound, per cent of control (PIP5K1A (human)): 34%; kinase still bound, per cent of control (PLK1 (human)): 45%; kinase still bound, per cent of control (PRKAA2 (human)): 100%; kinase still bound, per cent of control (PRKCI (human)): 26%; kinase still bound, per cent of control (PRKG1 (human)): 74%; kinase still bound, per cent of control (RAF1 (human)): 97%; kinase still bound, per cent of control (RIOK1 (human)): 37%; kinase still bound, per cent of control (RPS6KA2 KD1 (human)): 97%; kinase still bound, per cent of control (STK11 (human)): 86%; kinase still bound, per cent of control [4]: 100%; kinase still bound, per cent of control (TYRO3 (human)): 100%; kinase still bound, per cent of control (YSK4 (human)): 70%
COc1cc2ncnc(Nc3cccc(Cl)c3)c2cc1OC | 62 | 55 | 83 | 62 | 88 | 93 | 6.7 | 53 | 100 | 35 | 88 | 1.4 | 52 | 67 | 18 | 99 | 42% and 58% | 69 | 100 | 5.4 | kinase still bound, per cent of control [3]: 67%; kinase still bound, per cent of control (MAP2K5 (human)): 3.5%; kinase still bound, per cent of control (MAP3K9 (human)): 86%; kinase still bound, per cent of control (MAPK10 (human)): 9.8%; kinase still bound, per cent of control (MAPK11 (human)): 57%; kinase still bound, per cent of control (MAPK15 (human)): 100%; kinase still bound, per cent of control (MTOR (human)): 83%; kinase still bound, per cent of control (PHKG1 (human)): 67%; kinase still bound, per cent of control (PIP5K1A (human)): 93%; kinase still bound, per cent of control (PLK1 (human)): 92%; kinase still bound, per cent of control (PRKAA2 (human)): 100%; kinase still bound, per cent of control (PRKCI (human)): 80%; kinase still bound, per cent of control (PRKG1 (human)): 100%; kinase still bound, per cent of control (RAF1 (human)): 84%; kinase still bound, per cent of control (RIOK1 (human)): 65%; kinase still bound, per cent of control (RPS6KA2 KD1 (human)): 85%; kinase still bound, per cent of control (STK11 (human)): 86%; kinase still bound, per cent of control [4]: 52%; kinase still bound, per cent of control (TYRO3 (human)): 23%; kinase still bound, per cent of control (YSK4 (human)): 3.2%
N#Cc1cc(-c2ccnc(Nc3ccc(-n4cnc(-c5cccnc5)n4)cc3)n2)cc(N2CCOCC2)c1 | 28 | 72 | 87 | 16 | 35 | 12 | 100 | 15 | 100 | 73 | 100 | 62 | 48 | 89 | 69 | 74 | 18% | 42 | 51 | 48 | kinase still bound, per cent of control [3]: 53%; kinase still bound, per cent of control (MAP2K5 (human)): 8.6%; kinase still bound, per cent of control (MAP3K9 (human)): 22%; kinase still bound, per cent of control (MAPK10 (human)): 0.15%; kinase still bound, per cent of control (MAPK11 (human)): 79%; kinase still bound, per cent of control (MAPK15 (human)): 2%; kinase still bound, per cent of control (MTOR (human)): 100%; kinase still bound, per cent of control (PHKG1 (human)): 65%; kinase still bound, per cent of control (PIP5K1A (human)): 17%; kinase still bound, per cent of control (PLK1 (human)): 99%; kinase still bound, per cent of control (PRKAA2 (human)): 94%; kinase still bound, per cent of control (PRKCI (human)): 88%; kinase still bound, per cent of control (PRKG1 (human)): 100%; kinase still bound, per cent of control (RAF1 (human)): 91%; kinase still bound, per cent of control (RIOK1 (human)): 3.8%; kinase still bound, per cent of control (RPS6KA2 KD1 (human)): 73%; kinase still bound, per cent of control (STK11 (human)): 11%; kinase still bound, per cent of control [4]: 0%; kinase still bound, per cent of control (TYRO3 (human)): 87%; kinase still bound, per cent of control (YSK4 (human)): 0.25%
